Structures are written as SMILES. Like-named read-outs stand apart in the source and are kept apart here. Square brackets hold non-standard residues; d marks the D form. Peptide text beside a SMILES is read from it. Nle = CCCC[C@H](N)C(=O)O

This is an account of results in paper PMC12000094, “Development of a highly sensitive luciferase assay for intracellular evaluation of coronavirus Mpro activity” (Frontiers in Microbiology, 2025).

Assay [1] concerns HCoV-229E. Kind of assay: microbe, parasite or virus in culture. Format: cell-based, HCoV-229E (Huh-7 cells). As to conditions: for IC50: read-out: IC50 (inhibition of luciferase expression, HCoV-229E infection); for antiviral potency against HCoV 229E in words: ICMP assay, Huh-7 cells.
Assay [2] has as its system HCoV-229E. Kind of assay: RT-qPCR of viral RNA and Mpro gene in HCoV-229E-infected, drug-treated Huh-7 cells. Particulars: infected Huh-7 cells, 48 h post-infection. The assay is classed as cell-based, HCoV-229E (Huh-7 cells).
The test system of the next assay is 229E coronavirus. Also on record: method as in Boras et al., 2021. As to conditions: cell-based assay; ref Boras et al., 2021; read-out: IC50 (anti-229E coronavirus activity, previous study); cited from earlier work.
The mark [3] stands for this setting: Human coronavirus 229E, Huh-7, 48 h.

As for `CC(C)(C)NC(=O)N[C@H](C(=O)N1C[C@H]2[C@@H]([C@H]1C(=O)NC(CC1CCC1)C(=O)C(N)=O)C2(C)C)C(C)(C)C` (stereo partly drawn) [Boceprevir], the IC50 with HCoV-229E [1] (setting [3]) is > 50000 nM. For the same compound, the “antiviral potency against HCoV 229E in words” value (“antiviral potency” for short) in the assay with HCoV-229E [1] was “very weak inhibitory potency”.

For `O=c1cc(-c2ccc(O)c(O)c2)oc2cc(O[C@@H]3O[C@H](CO)[C@@H](O)[C@H](O)[C@H]3O)cc(O)c12` [Cynaroside, luteolin 7-O-β-D-glucoside], in the assay with HCoV-229E [1], the “antiviral potency” value is listed as “moderate inhibitory effects” and the IC50 was 21600 nM. For the same compound, in the assay on HCoV-229E [1] (listed as cynaroside), the “antiviral potency” value is listed as “moderate antiviral activity”.

On to `CC(C)C[C@H](NC(=O)OCc1ccccc1)C(=O)N[C@@H](CC1CCNC1=O)C(O)S(=O)(=O)O` (stereo partly drawn) [GC376], for which, in the assay with HCoV-229E [1], the 50% inhibitory concentration (IC50) came to 345 nM.

As to `CC(C)C[C@H](NC(=O)OCc1ccccc1)C(=O)N[C@@H](C[C@@H]1CCNC1=O)C(O)S(=O)(=O)[O-].[Na+]` (stereo partly drawn) [GC376], in the assay with HCoV-229E [1], the “antiviral potency” value is listed as “effectively suppresses the replication”.

Turning to `COc1cccc2[nH]c(C(=O)N[C@@H](CC(C)C)C(=O)N[C@@H](C[C@@H]3CCNC3=O)C(=O)COP(=O)(O)O)cc12` [Lufotrelvir], in the assay with HCoV-229E [2] (increasing drug concentration), the “intracellular 229E Mpro expression (RT-qPCR, normalized to GAPDH) versus drug concentration” value was “decreased significantly”. In addition, the “HCoV 229E viral RNA levels (RT-qPCR, normalized to GAPDH) versus drug concentration” value in the assay on HCoV-229E [2] (increasing drug concentrations) was “negative correlation”. Moreover, the figures for the IC50 with 229E coronavirus and in the assay with HCoV-229E [1] (setting [3]) were 58 nM and 65 nM, respectively.

With `CCCC[C@@H](C=O)NC(=O)[C@H](CC(C)C)NC(=O)[C@H](CC(C)C)NC(C)=O` [MG-101] (Ac-Leu-Leu-[Nle]-aldehyde), in the assay with HCoV-229E [1], the “antiviral potency” value was “moderate cellular inhibition” and the IC50 was determined as 2800 nM.

Take `CC(C)(C)[C@H](NC(=O)C(F)(F)F)C(=O)N1C[C@H]2[C@@H]([C@H]1C(=O)N[C@H](C#N)C[C@@H]1CCNC1=O)C2(C)C` [Nirmatrelvir]: in the assay on HCoV-229E [1] (setting [3]), the half-maximal inhibitory concentration (IC50) was 233 nM.

On to `CC(C)(C)c1ccc(N(C(=O)c2cnc[nH]2)[C@@H](C(=O)NC2CCCCC2)c2cccnc2)cc1` [X77], for which the IC50 in the assay with HCoV-229E [1] stood at 457 nM.
